{
  "source": "PubChem BioAssay (NCI)",
  "assay_in_all_cases": "inhibition of tumour cell growth, NCI panel, 48 h",
  "key": {"[1]": {"system": "NCI-H226 lung"}, "[2]": {"system": "NCI-H23 lung"}, "[3]": {"system": "NCI-H460 lung"}, "[4]": {"system": "NCI-H522 lung"}, "[5]": {"system": "NCI/ADR-RES ovarian"}, "[6]": {"system": "OVCAR-3 ovarian"}, "[7]": {"system": "OVCAR-4 ovarian"}, "[8]": {"system": "OVCAR-5 ovarian"}, "[9]": {"system": "OVCAR-8 ovarian"}, "[10]": {"system": "PC-3 prostate"}, "[11]": {"system": "RPMI-8226 leukemia"}, "[12]": {"system": "RXF 393 renal"}, "[13]": {"system": "SF-268 CNS"}, "[14]": {"system": "SF-295 CNS"}, "[15]": {"system": "SF-539 CNS"}, "[16]": {"system": "SK-MEL-2 melanoma"}, "[17]": {"system": "SK-MEL-28 melanoma"}, "[18]": {"system": "SK-MEL-5 melanoma"}, "[19]": {"system": "SK-OV-3 ovarian"}, "[20]": {"system": "SN12C renal"}, "[21]": {"system": "SNB-19 CNS"}, "[22]": {"system": "SNB-75 CNS"}, "[23]": {"system": "SR leukemia"}, "[24]": {"system": "SW-620 colon"}, "[25]": {"system": "T-47D breast"}, "[26]": {"system": "TK-10 renal"}, "[27]": {"system": "U251 CNS"}, "[28]": {"system": "UACC-257 melanoma"}, "[29]": {"system": "UACC-62 melanoma"}, "[30]": {"system": "UO-31 renal"}},
  "note": "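Exposure lasted 48 hours, with cells grown in 96-well plates and compounds tested at five concentrations. GI50 marks 50% less growth. TGI marks complete inhibition of growth.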",
  "data": [
    {"smiles": "S=C(Nc1ccc(OCc2nc3ccc(Cl)cc3[nH]2)cc1)NC1CCCCC1", "values": [
      {"measurement": "TGI", "setting": "[1]", "result": 29.1, "unit": "µM"},
      {"measurement": "GI50", "setting": "[2]", "result": 8.56, "unit": "µM"},
      {"measurement": "TGI", "setting": "[2]", "result": 21.4, "unit": "µM"},
      {"measurement": "GI50", "setting": "[3]", "result": 3.96, "unit": "µM"},
      {"measurement": "TGI", "setting": "[3]", "result": 14.2, "unit": "µM"},
      {"measurement": "GI50", "setting": "[4]", "result": 2.9, "unit": "µM"},
      {"measurement": "TGI", "setting": "[4]", "result": 12.6, "unit": "µM"},
      {"measurement": "GI50", "setting": "[5]", "result": 9.57, "unit": "µM"},
      {"measurement": "TGI", "setting": "[5]", "result": 25.3, "unit": "µM"},
      {"measurement": "GI50", "setting": "[6]", "result": 4.44, "unit": "µM"},
      {"measurement": "TGI", "setting": "[6]", "result": 18.8, "unit": "µM"},
      {"measurement": "GI50", "setting": "[7]", "result": 6.82, "unit": "µM"},
      {"measurement": "TGI", "setting": "[7]", "result": 25.1, "unit": "µM"},
      {"measurement": "GI50", "setting": "[8]", "result": 10.8, "unit": "µM"},
      {"measurement": "TGI", "setting": "[8]", "result": 22.6, "unit": "µM"},
      {"measurement": "GI50", "setting": "[9]", "result": 13.1, "unit": "µM"},
      {"measurement": "TGI", "setting": "[9]", "result": 28.5, "unit": "µM"},
      {"measurement": "GI50", "setting": "[10]", "result": 4.29, "unit": "µM"},
      {"measurement": "TGI", "setting": "[10]", "result": 18.7, "unit": "µM"},
      {"measurement": "GI50", "setting": "[11]", "result": 7.09, "unit": "µM"},
      {"measurement": "TGI", "setting": "[11]", "result": 41.8, "unit": "µM"},
      {"measurement": "GI50", "setting": "[12]", "result": 6.21, "unit": "µM"},
      {"measurement": "TGI", "setting": "[12]", "result": 20.5, "unit": "µM"},
      {"measurement": "GI50", "setting": "[13]", "result": 8.19, "unit": "µM"},
      {"measurement": "TGI", "setting": "[13]", "result": 24.5, "unit": "µM"},
      {"measurement": "GI50", "setting": "[14]", "result": 9.72, "unit": "µM"},
      {"measurement": "TGI", "setting": "[14]", "result": 22.9, "unit": "µM"},
      {"measurement": "GI50", "setting": "[15]", "result": 12.1, "unit": "µM"},
      {"measurement": "TGI", "setting": "[15]", "result": 24.5, "unit": "µM"},
      {"measurement": "GI50", "setting": "[16]", "result": 11.4, "unit": "µM"},
      {"measurement": "TGI", "setting": "[16]", "result": 24.5, "unit": "µM"},
      {"measurement": "GI50", "setting": "[17]", "result": 12.1, "unit": "µM"},
      {"measurement": "TGI", "setting": "[17]", "result": 24.5, "unit": "µM"},
      {"measurement": "GI50", "setting": "[18]", "result": 5.79, "unit": "µM"},
      {"measurement": "TGI", "setting": "[18]", "result": 19.5, "unit": "µM"},
      {"measurement": "GI50", "setting": "[19]", "result": 13.4, "unit": "µM"},
      {"measurement": "TGI", "setting": "[19]", "result": 27, "unit": "µM"},
      {"measurement": "GI50", "setting": "[20]", "result": 8.32, "unit": "µM"},
      {"measurement": "TGI", "setting": "[20]", "result": 21.2, "unit": "µM"},
      {"measurement": "GI50", "setting": "[21]", "result": 10.7, "unit": "µM"},
      {"measurement": "TGI", "setting": "[21]", "result": 22.6, "unit": "µM"},
      {"measurement": "GI50", "setting": "[22]", "result": 1.79, "unit": "µM"},
      {"measurement": "TGI", "setting": "[22]", "result": 15.2, "unit": "µM"},
      {"measurement": "GI50", "setting": "[23]", "result": 2.61, "unit": "µM"},
      {"measurement": "TGI", "setting": "[23]", "result": 8.45, "unit": "µM"},
      {"measurement": "GI50", "setting": "[24]", "result": 9.55, "unit": "µM"},
      {"measurement": "TGI", "setting": "[24]", "result": 24.2, "unit": "µM"},
      {"measurement": "GI50", "setting": "[25]", "result": 7.75, "unit": "µM"},
      {"measurement": "TGI", "setting": "[25]", "result": 26.2, "unit": "µM"},
      {"measurement": "GI50", "setting": "[26]", "result": 12.4, "unit": "µM"},
      {"measurement": "TGI", "setting": "[26]", "result": 24.9, "unit": "µM"},
      {"measurement": "GI50", "setting": "[27]", "result": 11.7, "unit": "µM"},
      {"measurement": "TGI", "setting": "[27]", "result": 24.8, "unit": "µM"},
      {"measurement": "GI50", "setting": "[28]", "result": 7.53, "unit": "µM"},
      {"measurement": "TGI", "setting": "[28]", "result": 21.6, "unit": "µM"},
      {"measurement": "GI50", "setting": "[29]", "result": 6.68, "unit": "µM"},
      {"measurement": "TGI", "setting": "[29]", "result": 20.4, "unit": "µM"},
      {"measurement": "GI50", "setting": "[30]", "result": 3.88, "unit": "µM"},
      {"measurement": "TGI", "setting": "[30]", "result": 16.6, "unit": "µM"}
    ]}
  ]
}
